Measurements taken from paper PMC12458359 (bioRxiv, 2025).
Like-named read-outs stand apart in the source and are kept apart here. Blank lines part the entries; values can stand above or below the molecule they belong to.

Experiments:
Experiment in all cases: radiometric enzymatic assay
Format in all cases: biochemical
CK1γ1 [1] = biological target: T1, CK1γ1 (Homo sapiens, UniProt Q9HCP0); details: read-out: Enzymatic IC50 CK1γ1
CK1γ2 [2] = biological target: T2, CK1γ2 (Homo sapiens, UniProt P78368); details: read-out: Enzymatic IC50 CK1γ2
CK1γ2 [3] = biological target: T2, CK1γ2; details: read-out: Enzymatic IC50 CK1γ2; remark: listed apart in the source
CK1γ1 [4] = biological target: T1, CK1γ1; details: read-out: Enzymatic IC50 CK1γ1; remark: listed apart in the source
CK1γ1 [5] = biological target: T1, CK1γ1; details: read-out: NB IC50 CK1γ3
CK1γ2 [6] = biological target: T2, CK1γ2; details: read-out: Enzymatic IC50 CK1γ2; remark: listed apart in the source
CK1γ1 [7] = biological target: T1, CK1γ1; details: read-out: Enzymatic IC50 CK1γ1; remark: listed apart in the source
CK1γ2 [8] = biological target: T2, CK1γ2; details: read-out: Enzymatic IC50 CK1γ2; remark: listed apart in the source

T2 sequence (P78368 whole entry): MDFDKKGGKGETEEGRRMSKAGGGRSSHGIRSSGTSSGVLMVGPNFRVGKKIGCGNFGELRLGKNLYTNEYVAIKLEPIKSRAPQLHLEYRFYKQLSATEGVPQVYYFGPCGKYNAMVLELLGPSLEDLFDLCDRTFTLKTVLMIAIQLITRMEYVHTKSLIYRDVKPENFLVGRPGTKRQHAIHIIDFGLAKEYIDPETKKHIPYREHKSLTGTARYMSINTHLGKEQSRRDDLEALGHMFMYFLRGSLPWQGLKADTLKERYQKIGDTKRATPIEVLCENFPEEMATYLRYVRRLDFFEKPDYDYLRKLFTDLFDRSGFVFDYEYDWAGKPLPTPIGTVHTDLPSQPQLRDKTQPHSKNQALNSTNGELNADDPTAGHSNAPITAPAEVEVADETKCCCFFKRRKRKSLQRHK
T1 sequence (Q9HCP0 whole entry): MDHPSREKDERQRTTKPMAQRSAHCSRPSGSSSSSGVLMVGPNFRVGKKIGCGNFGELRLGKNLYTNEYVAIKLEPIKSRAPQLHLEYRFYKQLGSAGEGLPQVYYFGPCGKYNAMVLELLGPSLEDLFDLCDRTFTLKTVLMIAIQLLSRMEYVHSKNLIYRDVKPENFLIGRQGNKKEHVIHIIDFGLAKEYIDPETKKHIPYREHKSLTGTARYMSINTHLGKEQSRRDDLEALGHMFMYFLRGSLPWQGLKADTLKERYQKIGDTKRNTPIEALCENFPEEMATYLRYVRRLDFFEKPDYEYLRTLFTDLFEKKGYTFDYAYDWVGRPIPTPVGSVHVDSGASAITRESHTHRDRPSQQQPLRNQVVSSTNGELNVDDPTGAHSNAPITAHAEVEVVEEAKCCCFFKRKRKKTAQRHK

IC50 (CK1γ1 [1]): 28 nM
IC50 (CK1γ2 [2]): 7 nM
SMILES: N#Cc1ccc2nc(Nc3ccc(N4CCOCC4)c(Cl)c3)[nH]c2c1 [compound 14, 2-((3-chloro-4-morpholinophenyl)amino)-1H-benzo[d]imidazole-6-carbonitrile]

IC50 (CK1γ2 [3]): 10 nM
IC50 (CK1γ1 [4]): 40 nM
SMILES: N#Cc1ccc2nc(Nc3ccc(N4CCOCC4)c(Br)c3)[nH]c2c1 [compound 15, 2-((3-bromo-4-morpholinophenyl)amino)-1H-benzo[d]imidazole-6-carbonitrile]

IC50 (CK1γ1 [5]): 30 nM
IC50 (CK1γ2 [6]): 9 nM
SMILES: N#Cc1ccc2[nH]c(Nc3ccc(N4CCCCC4)c(Cl)c3)nc2c1 [compound 20, 2-((3-chloro-4-(piperidin-1-yl)phenyl)amino)-1H-benzo[d]imidazole-5-carbonitrile]

IC50 (CK1γ1 [7]): 36 nM
IC50 (CK1γ2 [8]): 14 nM
SMILES: CN1CCN(c2ccc(Nc3nc4ccc(C#N)cc4[nH]3)cc2Cl)CC1 [compound 21, 2-((3-chloro-4-(4-methylpiperazin-1-yl)phenyl)amino)-1H-benzo[d]imidazole-6-carbonitrile]
